The record followed here is patent US20040229791A1, “Compositions and methods of modulating TGF-beta activity by fatty acids” (priority 2002, published 2004).

Molecules are shown by their SMILES.

For this assay, the target named is T1, TGF-β2-α2M* complex (Homo sapiens, UniProt P01023).
T1 construct: was purified from pooled citrate-treate human plasma; from tissue; host or cells: pooled citrate-treated human plasma
T1 sequence (P01023 24-1474): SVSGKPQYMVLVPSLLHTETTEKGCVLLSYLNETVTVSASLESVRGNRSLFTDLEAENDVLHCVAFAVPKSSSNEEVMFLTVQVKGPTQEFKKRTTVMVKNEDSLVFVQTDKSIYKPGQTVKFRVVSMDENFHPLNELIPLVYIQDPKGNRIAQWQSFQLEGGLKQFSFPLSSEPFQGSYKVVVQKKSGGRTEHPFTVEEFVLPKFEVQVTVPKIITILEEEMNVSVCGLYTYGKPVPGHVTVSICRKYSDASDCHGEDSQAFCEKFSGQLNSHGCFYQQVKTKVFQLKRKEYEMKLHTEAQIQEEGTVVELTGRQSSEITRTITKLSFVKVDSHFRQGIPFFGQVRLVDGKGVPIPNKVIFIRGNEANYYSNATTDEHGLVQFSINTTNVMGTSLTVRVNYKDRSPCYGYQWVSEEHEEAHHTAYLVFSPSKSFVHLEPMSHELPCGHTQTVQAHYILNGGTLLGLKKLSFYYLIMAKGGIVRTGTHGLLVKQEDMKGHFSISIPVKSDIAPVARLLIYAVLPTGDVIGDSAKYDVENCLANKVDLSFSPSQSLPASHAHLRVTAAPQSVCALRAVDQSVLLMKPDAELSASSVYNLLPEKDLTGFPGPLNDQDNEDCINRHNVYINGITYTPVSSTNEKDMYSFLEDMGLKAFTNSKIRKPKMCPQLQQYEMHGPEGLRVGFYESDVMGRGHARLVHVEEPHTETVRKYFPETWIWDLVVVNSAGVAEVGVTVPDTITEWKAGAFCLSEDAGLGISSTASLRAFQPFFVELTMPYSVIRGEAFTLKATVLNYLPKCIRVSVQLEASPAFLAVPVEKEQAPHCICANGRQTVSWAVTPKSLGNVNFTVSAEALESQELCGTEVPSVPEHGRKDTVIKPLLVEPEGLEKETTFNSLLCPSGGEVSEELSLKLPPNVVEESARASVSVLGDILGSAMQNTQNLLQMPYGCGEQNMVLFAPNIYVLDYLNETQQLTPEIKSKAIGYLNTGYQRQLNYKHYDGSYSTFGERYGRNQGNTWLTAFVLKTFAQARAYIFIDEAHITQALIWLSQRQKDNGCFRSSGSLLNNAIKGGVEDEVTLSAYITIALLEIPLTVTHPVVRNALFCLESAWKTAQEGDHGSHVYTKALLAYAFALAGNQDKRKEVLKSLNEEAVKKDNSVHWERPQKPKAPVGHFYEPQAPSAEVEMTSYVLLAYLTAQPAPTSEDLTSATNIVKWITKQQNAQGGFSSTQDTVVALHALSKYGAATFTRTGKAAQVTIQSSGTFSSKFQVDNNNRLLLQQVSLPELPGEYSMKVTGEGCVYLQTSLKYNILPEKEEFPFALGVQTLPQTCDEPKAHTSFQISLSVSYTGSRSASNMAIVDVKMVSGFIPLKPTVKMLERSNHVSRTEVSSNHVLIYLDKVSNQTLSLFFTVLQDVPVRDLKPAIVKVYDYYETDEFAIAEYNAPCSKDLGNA
The experiment in a line: Inhibition of 125I-TGF-β2 and α2M* complex formation (5% non-denaturing PAGE). The format is binding. Particulars: 50% inhibition; read-out: concentration that inhibited 50% of the complex formation of α2M* and 125I-TGF-β2. The procedure: TGF- ? isoforms bind to α2M* with different affinities: TGF ? β2>TGF ? β1 ( active sites of TGF ? β1 and TGF- ? 2 responsible for high-affinity binding to ? 2M* are disti from the low-affinity ? 2M* binding site in TGF- ? 3 (19). To determine if fatty acids differentially affect the binding of TGF- ? isoforms to ? 2M*, the effects of various concentrations of arachidonic acid and myristic acid on complex formation of ^125I-labeled TGF ? β isoforms and ? 2M were determined*. […] It inhibited 30% of the complex form . α2M* and TGF ? β2 and TGF ? β3 at 100 and >250 μM, respectively. Arachidon polyunsaturated fatty acid, was a stronger inhibitor of complex formation of ? 2M* and TGF-.β2/TGF ? β3. It inhibited 50% of the complex formation of ? 2M* and ^125I-TGF- ? 2 at 50 μM (FIG. 3A). The observation that myristic acid and arachidonic acid inhibited complex formation of ^125I-TGF- ? […] 2M* complexes in the reaction mixtures were then analyzed by 7.5% SDS-PAGE and autoradiography.
Complex formation of ^125I-TGF-β and ? […] After 30 min at room temperature, the complex formation of ^125I-TGF- ? and. α2M* was determined by 5% non-denaturing polyacrylamide gel electrophoresis (PAGE) or by 7.5% SDS-PAGE following cross-linking by 0.6 mM DSS. After electrophoresis, the gel was stained with Coomassie blue and analyzed by autoradiography. […] 2M* was quantified using a PhosphoImager (Fuji).

As for `CCCCC/C=C\C/C=C\C/C=C\C/C=C\CCCC(=O)O` [arachidonic acid], the IC50 came to 50 µM.
